Patent US20260049337A1, “A R[…] A[…] OF INHIBITING TUMOR P[…] […] TIME IN TUMOR-BEARING I[…] USE THEREOF” (NANJING VIROTHER BIOPHARMACEUTICAL CO., LTD., priority 2022, published 2026)

Experiments:
[1] = system: LCN2 expression in CD8+ T cells; assay: Panc02 cells cocultured with CD8+ T cells, flow cytometry for LCN2; assay type: cell-based; details: coculture with Panc02 for 24 h; vs coculture without GLP1(7-36), p<0.01
Method: Panc02 cells were cocultured with CD8+ T cells with or without GLP1(7-36) for 24 h, then T cells were subjected to flow cytometry for determination of LCN2 expression (FIG. 28A).

[2] = system: LCN2 expression in CD8+ T cells; assay: CD8+ T cells cultivated with Panc02 supernatant, FACScan for Lcn2; assay type: cell-based; details: 24 h, vs absence of agonist, p<0.001
Method: Panc02 cells were cultivated in DMEM for 48 h, then supernatant was harvested and added into CD8+ T cells for further 24 h cultivation in the presence or absence of GLP1(7-36) or GLP1 analogue (Liraglutide) followed by FACScan for Lcn2 determination (FIG. VI(B)-3B).

GLP-1(7-36): GLP-1 receptor agonist peptide, SEQ ID NO: 1, HAEGTFTSDVSSYLEGQAAKEFIAWLVKGR
Lcn2 expression in CD8+ T cells [1]: statistically significantly reduced
Lcn2 expression in CD8+ T cells [2]: statistically significantly reduced
